From US10561716B2, “Prostate cancer vaccine” (Wisconsin Alumni Research Foundation, priority 2006, dated 2020)
“Also recorded” adds a separate entry of the source.

Assays:
[1] = system: HLA-A2+ LNCaP prostate cancer cell line; test: Cytotoxicity assay (LDH) of peptide-specific patient T-cell cultures against LNCaP; format: cell-based, human; design: key to Prostate cancer cell lysis: +: positive lysis; −: no lysis; +/−: inconclusive; details: for Prostate cancer cell lysis: peptide-specific T cells against HLA-A2+ LNCaP; for Lysis of the LNCaP cell line by peptide-specific T-cells (FIG. 6): patient T-cell lines, three effector-to-target ratios
Description: (§1) Human prostate cancer patients underwent leukapheresis, and PBMCs were isolated using a Ficoll-Paque gradient (Pharmacia, Kirkland, Quebec). Immature dendritic cells (iDCs) were generated by incubating flask-adherent PBMCs with 20 ng/mL granulocyte-macrophage colony stimulating factor and 10 ng/mL interleukin four (IL-4) for six days at 37° C./5% CO2 (cytokines from: Fitzgerald Industries, Concord, Mass.). These iDCs were then treated with 150 ng/mL IL-6, 10 ng/mL IL-1β, 10 ng/mL tumor necrosis factor alpha (TNF-α), and […] prostaglandin E2 (Fitzgerald Industries) to generate mature dendritic cells (mDCs). These mDCs were then pulsed with 20 μg/mL AR LBD-derived peptide, and after being irradiated were co-incubated with CD4+ and CD8+ T-cells negatively isolated from autologous PBMCs (Invitrogen, Carlsbad, Calif.). After incubating for 24 hours, these cultures were then treated with 10 U/mL IL-2 and 30 U/mL IL-7 (Fitzgerald Industries), and incubated for another 6 days. These cultured T-cells were re-stimulated weekly using peptide-pulsed antigen presenting cells (either mDCs or the TK6 lymphoma cell line).
(§2) T-cell cultures that underwent at least two stimulations (or splenocyte cultures that had undergone one stimulation) were collected and incubated for four hours with target cells (either T2 cells pulsed for two hours with a specific or non-specific peptide, the LNCaP prostate cancer cell line, or media alone) at various effector-to-target ratios. After incubation, supernatants were collected and levels of lactate dehydrogenase were measured using the CytoTox 96 Non-Radioactive Assay (Promega). The relative percentage of peptide-specific lysis was quantitated using the following equation: […]
(§3) To characterize CD8+ T-cell responses to the AR LBD, the amino acid sequence of the AR LBD was evaluated for potential HLA-A2-binding epitopes that fit the consensus peptide binding sequence of X-L/M-X-X-X-V-X-X-V/L (SEQ ID NO:8), using the algorithm of Parker and colleagues (Parker K C et al., 1994, J. Immunol. 152:163-175). […] These peptides were synthesized and then characterized for their affinity for HLA-A2 in vitro using T2 binding assays. […] Peptide-specific T-cell lines were then cultured from the peripheral blood of 11 HLA-A2^+ patients with prostate cancer, using each of these peptides, and then tested for their cytolytic activity against both peptide-pulsed HLA-A2-expressing target cells and the HLA-A2^+ LNCaP prostate cancer cell line. Specifically, naive T cells were isolated by magnetic negative selection (Dynal) from the peripheral blood mononuclear cells (PBMCs) of HLA-A2-expressing prostate cancer patients, and cultured in the presence of autologous cytokine-matured irradiated dendritic cells (mDC) that had been loaded with individual peptides. These cultures received interleukin 2 (IL-2) and IL-7 the day after the culture, and were re-stimulated weekly with peptide-pulsed mDCs. Beginning after two weeks of stimulation, the T-cell cultures were tested weekly for their cytolytic activity using peptide-loaded T2 cells as target cells. Peptide-specific T-cells could be cultured from the majority of patients to at least one of these peptides, and peptide-specific T-cell lines could be cultured from the majority (7/11) of HLA-A2-expressing patients against the AR811 peptide in particular (Table 2).
(§4) Table 2. Compiled results of T cell culturing and cytotoxicity assays. Shown in this table are the results obtained from cytotoxicity assays of T cell cultures from eleven HLA-A2-expressing patients with prostate cancer. In the second column is the number of patients for which peptide-specific T cells could be identified following 2-4 in vitro stimulations.

peptide-loaded T2 cells = test: Cytotoxicity assay (LDH) of peptide-specific patient T-cell cultures against peptide-loaded T2 cells; format: cell-based, human; details: for Peptide-specific lysis (Number of patients): patients of eleven HLA-A2-expressing prostate cancer patients with peptide-specific T cells after 2-4 in vitro stimulations; for Peptide-specific lysis of T2 cells by peptide-specific T-cells (FIG. 6): patient T-cell lines, three effector-to-target ratios
Description: as §1, §2, §3, §4

[2] = system: T2 cells pulsed with the AR811 peptide; test: Immunization of HLA-A2/DR1 (HHD-II) mice with peptide, splenocyte CTL assay; format: in vivo; details: once 100 μg peptide in CFA, splenocytes after one week
IFNγ and TNFα = test: Intracellular cytokine staining of AR811-specific T-cell clone; format: cell-based, human; details: clone restimulated with peptide, gated on CD3+/CD8+ cells
Description: A clonal T-cell line specific for the AR811 peptide was derived by limited dilution following multiple restimulations in vitro. This line was restimulated for 5 hours in vitro with T2 cells and media only (panel A), an irrelevant peptide (panel B), AR811 peptide (panel C), or PMA/Ionomycin (panel D). IFNγ and TNFα cytokine accumulation were assessed by intracellular flow cytometric analysis (Cytofix/cytoperm kit, BD Pharmingen). Cells were first stained for CD3 and CD8 expression and CD3+/CD8+ cells were analyzed for IFNγ and TNFα expression. Shown are the plots gated on CD3+/CD8+ cells.
After T-cell cultures containing AR LBD peptide-specific T-cells were identified, peptide-specific T-cell clones were isolated using limited-dilution cloning. Briefly, cultured T-cells were diluted to 400 cells/mL, and were diluted at a 1:1 ratio down the rows of a 96-well plate. These T-cells were mixed with 2×10^5 autologous PBMCs, as well as an anti-CD3 antibody (Clone UCHT1, BD Biosciences, 120 ng/mL) and IL-2 (Fitzgerald Industries, 200 U/mL), and were incubated at 37° C./5% CO2 for 12-14 days. Cultures generated from a single cell were identified, and their peptide-specificity was analyzed using a mini-cytotoxicity assay (as above). […] After three additional days, expanded T-cell clones were analyzed for cytotoxicity against peptide-specific or non-specific T2-pulsed cells (as described above). […]

[3] = system: prostate cancer cell lines (LNCaP, MDA-Pca-2B, DU145); test: Cytotoxicity of AR811 CD8+ T-cell clone against prostate cancer cell lines, with HLA-A2 blocking antibody; format: cell-based, human; details: HLA-A2-negative DU145
Description: In addition, lysis was evaluated following pre-treatment of LNCaP with an HLA-A2 blocking monoclonal antibody (starburst). Shown is a cytotoxicity assay of an AR811 CD8+ cell clone. Cells were restimulated for seven days using peptide-pulsed antigen presenting cells, followed on day seven by a rest period of three days before they were analyzed for their cytotoxic activity.
To conduct a mini-cytotoxicity assay of limited-dilution clones, 50 μl (¼) of the cultured clones were incubated for four hours with either T2 cells pulsed with the specific peptide, a non-specific peptide, or media alone. For the subsequent characterization of CTL clone cytotoxicity against prostate cancer cells, cryopreserved CTL clones were thawed, washed 3 times, and restimulated by incubating the clones with peptide-pulsed irradiated TK6 cells for 7 days. These clones were then resuspended in 10 U/mL IL-2, and allowed to incubate for three days at 37° C./5% CO2. They were then analyzed for cytotoxicity (as described above) against four prostate cancer cell lines: LNCaP, DU145, LAPC4, and MDAPCa-2b cell lines. To characterize HLA-A2-restriction of observed cytotoxicity, a HLA-A2 antibody was added to the reaction (Clone BB7.2, BD Biosciences, 1 μg/mL).

Sequence	Prostate cancer cell lysis [1]	Peptide-specific lysis (Number of patients) (peptide-loaded T2 cells)	Lysis of the LNCaP cell line by peptide-specific T-cells (FIG. 6) [1]	Peptide-specific lysis of T2 cells by peptide-specific T-cells (FIG. 6) (peptide-loaded T2 cells)	Peptide-specific CTL after immunization (FIG. 9) [2]	IFNγ and TNFα secretion of peptide-specific T-cell clone (FIG. 7) (IFNγ and TNFα)	Lysis of prostate cancer cells by AR811 T-cell clone, HLA-A2 restriction (FIG. 8) [3]
ALLSSLNEL [AR700]	−	1/11					
FLCMKALLL [AR805]	+/−	3/11					
FSIIPVDGL [AR814]	−	3/11					
KLLDSVQPI [AR862]	−	5/11					
LGERQLVHVV [AR708]	−	1/11					
LLLFSIIPV [AR811]	+	7/11	could lyse the LNCaP cell line	lyse T2 cells in a peptide-specific fashion	AR811 peptide-specific CTL could be identified after immunization; also recorded: develop peptide-specific CTL	secrete both IFNγ and TNFα in response to peptide stimulation; also recorded: secretes IFNγ and TNFα in response to peptide stimulation	lysed prostate cancer cells in an MHC class I-restricted fashion; also recorded: naturally processed HLA-A2-restricted T-cell epitope
QLTKLLDSV [AR859]	+/−	2/11	did not lyse the LNCaP cell line	showed peptide-specific lysis			
RMLYFAPDLV [AR761]	+/−	6/11					
VLEAIEPGV [AR677]	−	2/11					
WMGLMVFAM [AR742]	−	2/11					
